Legend:
[1] = tested on: rat gastric secretion; assay: gastric secretion in the pylorus-ligated rat (modified Shay procedure); type: in vivo; details: 32 mg/kg, interduodenally (i.d.), four hours after ligation, male Charles River rats
Protocol: The procedures for the results of these tests are presented at the end of the following examples, which will serve to illustrate the present invention.
The procedure for testing gastric secretion in the rat, a modification of the procedure of Shay et al., Gastroenterology, 26, 906-13 (1954) is carried out as follows:
Male Charles River rats weighing 200-300 grams are deprived of food but not water for 24 hours prior to use. Water is, however, withheld during the experiment. The rats are weighed, anesthetized, and the pylorus ligated according to the method of Shay et al. Treatment or vehicle control is then administered interduodenally (i.d.). Rats are housed 2/cage and sacrificed with CO2 four hours after ligation. The stomachs are removed, rinsed, and contents emptied into a graduated centrifuge tube. The tubes are centrifuged for 20 minutes at 2,000 RPM and the volume of gastric juice recorded. Any samples obviously contamined by feces, food or hemolysis are eliminated. An aliquot of each is frozen for later analysis of Na^+, K^+ and Cl^- concentration. The pH is measured and 1 ml. of gastric juice is titrated with 0.1 N NaOH to a pH of 7.0-7.4 Titratable acid output is calculated in microequivalents and the percent inhibition of acid output is calculated as follows: [formula]

[2] = target: T1, H2 histamine receptors (Cavia porcellus, UniProt P47747); assay: guinea pig heart atrium test (histamine-induced positive chronotropic response in spontaneously beating right atrium); type: cell-based; details: 32° C., pH 7.4, 30 minutes after addition of compound, vs histamine dose-response
T1 construct: from tissue; host or cells: guinea pig right atrium (isolated, spontaneously beating)
Protocol: The guinea pig heart atrium test is carried out as follows:
The tissue is allowed to stabilize over 1 hour. Individual contractions are recorded with a force-displacement transducer through a strain gauge coupler. A control dose-response curve to histamine in the above described tissue bath is obtained after which the tissue is washed 3 times and allowed to re-equilibrate to basal rate. The test compound is added to the tissue bath at the desired final concentration. Thirty minutes after addition of the compound, a fresh histamine dose response curve is again obtained. Then the response to histamine in the presence of antagonist is compared to the histamine control response. This procedure is repeated, using fresh tissues, for each concentration of antagonist tested.

[3] = cited from earlier work

T1 sequence (P47747 whole entry): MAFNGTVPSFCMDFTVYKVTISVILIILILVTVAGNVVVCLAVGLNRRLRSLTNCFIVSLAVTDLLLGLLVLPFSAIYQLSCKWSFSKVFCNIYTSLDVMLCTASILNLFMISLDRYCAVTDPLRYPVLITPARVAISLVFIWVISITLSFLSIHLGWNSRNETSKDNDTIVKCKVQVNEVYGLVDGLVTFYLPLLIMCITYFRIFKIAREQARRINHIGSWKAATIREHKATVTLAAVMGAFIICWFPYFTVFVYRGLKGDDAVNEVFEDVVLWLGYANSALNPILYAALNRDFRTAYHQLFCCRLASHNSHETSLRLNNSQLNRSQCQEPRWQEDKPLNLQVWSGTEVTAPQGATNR

Structure (SMILES)	% Inhibition (of acid output) [1]	pA2 Value (apparent dissociation constant of the H2 antagonist) [2]	confusional states (in words) ([3]; elderly patients)	anti-androgenic activity (in words) ([3]; patients)	duration of action (in words) ([3]; patients)
c1cc(CN2CCCCC2)cc(OCCCNc2nc3ccccc3[nH]2)c1 [A, 2-[3-[3-[(1-piperidinylmethyl)]phenoxy]propylamine]benzimidazole]	65%	7.1	–	–	–
CN/C(=N/CCSCc1nc[nH]c1C)NC#N [Cimetidine]	–	–	a tendency to cause confusional states in elderly patients	anti-androgenic activity	short duration of action

Source: patent publication US4447611A, “Benzo-fused and heterocyclic fused imidazole anti-ulcer agents” (American Home Products Corporation, priority 1982, dated 1984)
